Literature values in paper PMC10006169, “A phase I trial of LXS196, a protein kinase C (PKC) inhibitor, for metastatic uveal melanoma” (British Journal of Cancer, 2023).

Tested on: skin-derived melanoma cell lines driven by mutant B-Raf or N-Ras
Design: method as in ref 18 = [18]; 18. Visser M, Papillon J, Fan J, Luzzio M, Michael W, Wang R, et al. NVP-LXS196, a novel PKC inhibitor for the treatment of uveal melanoma. Paper presented at: Abstracts of papers of the American Chem
Conditions: cited from earlier work

SMILES: CC1(N)CCN(c2cccnc2NC(=O)c2nc(-c3ncccc3C(F)(F)F)cnc2N)CC1 [LXS196]
- Cellular activity: no activity observed
